The results in this text go back to patent US6458782B1, “Remedies for diabetes” (priority 1997, dated 2002).

For experiment [1], the system named is adipocyte strain 3T3L-1. Nature of the experiment: Differentiation of precursor adipocytes into adipocytes (Oil Red O staining, absorbance of extract). The class given is cell-based. To be noted: culture for 13 days; for Absorbance (490 nm): Oil Red O extracted with isopropanol, Control 0.266. Here is the method:
(§1) Therefore, effect of the medicaments of the present invention on enhancement of differentiation of precursor adipocytes into adipocytes was examined by using an adipocyte strain 3T3L-1 (obtained from Japanese Cancer Research Resource Bank) according to the published method (Endocrinology, 137, 4706, 1996). The cells were cultured in a culture dish having a diameter of 6 cm as a monolayer, and added with HX600, HX-620, HX-630, or HX-640 when the cells reached a density at which the cells began to contact with one another. After the culture for 13 days, lipid droplets in the cells were stained with Oil Red O. The dye was extracted with 1.0 ml of isopropanol (a modified method described in Methods in Enzymology, 32, 192), and absorbance (490 nm) of the extract was measured and used as index of differentiation into adipocytes.

The subject of a further experiment is adipocyte strain 3T3L1. Nature of the experiment: Enhancement of the differentiation of precursor adipocytes into adipocytes induced by a thiazoline compound (troglitazone). The class given is cell-based. The following applies: for Absorbance (490 nm): single compound 10^−7 M, culture 10 days, Control 0.086.
The test system of experiment [2] is adipocyte strain 3T3L-1. Nature of the experiment: Enhancement of the differentiation of precursor adipocytes into adipocytes induced by insulin. The format is cell-based. To be noted: for Absorbance (490 nm): culture 9 days, Not added 0.072. As for the experimental part:
as §1
Synergistic effect of insulin used for therapeutic treatment of diabetes and the medicament of the present invention was examined. Cells of the adipocyte strain 3T3L-1 were cultured in a culture dish having a diameter of 3.5 cm as a monolayer, and added with 10 μg/ml of insulin and HX-600 (10^−6 M or 10^−8 M) when the cells reached a density at which the cells began to contact with one another. The culture was continued for 9 days.

For experiment [3], the system named is diabetic mice (C57BL/6J-Lepob). Nature of the experiment: Hypoglycemic action in diabetes model mice (blood glucose and acylglycerol level). The format is in vivo. To be noted: for Blood acylglyerol level, percentage based on the control group / Blood glucose level, percentage based on the control group / Blood acylglyerol level / Blood glucose level: 6th day; for Blood acylglyerol level: Control 132 ± 14; for Blood glucose level: Control 428 ± 82. Here is the method:
Experiments were performed by using diabetic mice hereditarily have pathological conditions of fatness, hyperglycemia, and hyperlipidemia (C57BL/6J-Lepob, female, Jackson Laboratory, 10-week old) according to the method described in the literature (Diabetologia, 14, 141, 1978). Blood samples were collected one day before the start of the administration, and the mice were divided into three groups (one group consisted of 4 or 5 mice). One group was used as a medication group, and each mouse of the group was orally administered with HX-600 suspended in 0.1% carboxymethylcellulose as microparticules (30 mg/kg/day or 100 mg/kg/day) every day for 6 days. Mice of the control group were orally administered with only 0.1% carboxymethylcellulose. On the 6th day after the start of the administration, blood samples were collected from ophthalmic fundus veins.
Blood glucose level was measured by the glucose oxidase method (Fuji Drychem Slide GLU-P), and acylglycerol level was measured by the glycerol phosphate dehydrogenase method (Fuji Drychem Slide TG-P). As a measurement apparatus, Fuji Drychem 5000 was used. […] Percentages based on the control group are also indicated.

Setting [4] is: 30 mg/kg/day and 100 mg/kg/day, 6th day of the administration.

From the text for adipocyte strain 3T3L1: The culture was continued for 10 days.

Take “4-[2,3-(2,5-dimethyl-2,5-hexano)dibenzo[b,e]azepin-11-yl]benzoic acid [HX-640]”: the “Absorbance (490 nm)” value in the experiment with adipocyte strain 3T3L-1 [1] (10^−6 M) came out at 0.825; in the experiment on adipocyte strain 3T3L-1 [1] (10^−7 M), 0.694; in the experiment with adipocyte strain 3T3L-1 [1] (10^−8 M), 0.365. For the same compound, the “differentiation of precursor adipocyte 3T3L-1 into adipocytes (in words)” value in the experiment with adipocyte strain 3T3L-1 [1] is “strongly promoted”.
Take `Cc1c(C)c2c(c(C)c1O)CCC(C)(COc1ccc(CC3SC(=O)NC3=O)cc1)O2` (stereo not drawn) [CS-045, troglitazone, reference compound]: in the experiment with adipocyte strain 3T3L1, the “Absorbance (490 nm)” value came out at 0.171.
For `CN1c2ccccc2N=C(c2ccc(C(=O)O)cc2)c2cc3c(cc21)C(C)(C)CCC3(C)C` [HX-600, 4-[5H-2,3-(2,5-dimethyl-2,5-hexano)-5-methyldibenzo [b,e][1,4]diazepin-11-yl]benzoic acid], the “Absorbance (490 nm)” value is 0.287 in the experiment with adipocyte strain 3T3L-1 [2] (HX-600 10^−6 M alone); 0.118 with adipocyte strain 3T3L-1 [2] (HX-600 10^−8 M alone); 0.690 with adipocyte strain 3T3L-1 [1] (10^−6 M); 0.445 in the experiment on adipocyte strain 3T3L-1 [1] (10^−7 M); 0.274 with adipocyte strain 3T3L-1 [1] (10^−8 M); 0.131 in the experiment with adipocyte strain 3T3L1. In the experiment with adipocyte strain 3T3L-1 [2] (HX-600 10^−6 M and 10^−8 M with insulin 10 μg/ml, 9 days), the “differentiation into adipocytes induced by the action of insulin (in words)” value was “synergistically promoted”. Besides, the “differentiation of precursor adipocyte 3T3L-1 into adipocytes (in words)” value in the experiment with adipocyte strain 3T3L-1 [1] is “strongly promoted”. Further, in experiment [3] (setting [4]), the “acylglycerol level versus the control group (in words)” value is “remarkably lower”. Further, the “blood glucose level versus the control group (in words)” value in experiment [3] (setting [4]) is recorded as “remarkably lower”. Besides, the “Blood acylglyerol level, percentage based on the control group” value in experiment [3] (30 mg/kg/day oral for 6 days) amounted to 79.5%; in experiment [3] (100 mg/kg/day oral for 6 days), 72.7%. The “Blood glucose level, percentage based on the control group” value stood at 60.3% in experiment [3] (30 mg/kg/day oral for 6 days) and 55.6% in experiment [3] (100 mg/kg/day oral for 6 days). Moreover, the Blood acylglyerol level was 105 ± 14 mg/dL in experiment [3] (30 mg/kg/day oral for 6 days) and 96 ± 11 mg/dL in experiment [3] (100 mg/kg/day oral for 6 days). Moreover, the Blood glucose level in experiment [3] (30 mg/kg/day oral for 6 days) is 258 ± 56 mg/dL; in experiment [3] (100 mg/kg/day oral for 6 days), 238 ± 59 mg/dL. In addition, the “action of inducing differentiation into adipocytes by CS-045 (in words)” value in the experiment with adipocyte strain 3T3L1 (HX600 10^−7 M with CS-045 10^−7 M, 10 days) is listed as “synergistically promoted”.
Turning to `CC1(C)CCC(C)(C)c2cc3c(cc21)Oc1ccccc1N=C3c1ccc(C(=O)O)cc1` [HX-620, 4-[2,3-(2,5-dimethyl-2,5-hexano)dibenzo[b,f][1,4]oxazepin-11-yl]benzoic acid], the “Absorbance (490 nm)” value was 0.543 in the experiment with adipocyte strain 3T3L-1 [1] (10^−6 M), 0.308 in the experiment with adipocyte strain 3T3L-1 [1] (10^−7 M) and 0.225 in the experiment on adipocyte strain 3T3L-1 [1] (10^−8 M). Further, the “differentiation of precursor adipocyte 3T3L-1 into adipocytes (in words)” value in the experiment with adipocyte strain 3T3L-1 [1] is recorded as “strongly promoted”.
For the compound `CC1(C)CCC(C)(C)c2cc3c(cc21)Sc1ccccc1N=C3c1ccc(C(=O)O)cc1` [HX-630, 4-[2,3-(2,5-dimethyl-2,5-hexano)dibenzo[b,f][1,4]thiazepin-11-yl]benzoic acid], the “Absorbance (490 nm)” value in the experiment on adipocyte strain 3T3L-1 [1] (10^−6 M) worked out at 0.745; in the experiment on adipocyte strain 3T3L-1 [1] (10^−7 M), 0.471; with adipocyte strain 3T3L-1 [1] (10^−8 M) it was 0.298. Besides, the “differentiation of precursor adipocyte 3T3L-1 into adipocytes (in words)” value with adipocyte strain 3T3L-1 [1] was “strongly promoted”.
As to insulin, in the experiment on adipocyte strain 3T3L-1 [2] (insulin 10 μg/ml alone), the “Absorbance (490 nm)” value came to 0.301.
